For series [1] the following is noted: pig, in vivo. The text has this: Twenty-two domestic pigs weighing 15-20 kg were acclimated to lab conditions over 4 days. The pigs were fed a standard pig diet, which followed energetic requirements for these animals (Nutrient Requirements of Swine, 9th, 1998, Subcommittee on Swine Nutrition, National Research Council) and water ad libitum. Animals were randomly assigned into group C [6 pigs, receiving a glucosaline solution (Braun cat No 622647), 5% glucose, 0.9% NaCI], group G [8 pigs, receiving the same glucosaline solution fortified with 8 g/l of Gln, (Sigma cat No G-3126)], and group N [8 pigs, receiving the same glucosaline solution fortified with 10 g/l of NAQ, (Sigma cat No A-9125)]. Before surgery, animals were fasted 15 h. The day of experiment, animals were weighed and anaesthetized using Stresnil® and penthotal. […]
The analysis for N-acetyl-L-glutamine was conducted as follows. […] The detection and quantification of N-acetyl-L-glutamine was monitored at 210 nm.
The analysis for glutamine and glutamate was conducted as follows. […] After 1 minute the sample was diluted to 1 mL and injected into the HPLC system, consisting of a 2690 Separation Module, fluorescence detector and a SupelcoSil LC-18 column (250×4 mm, 3 micrometers). […] The detection and quantification of glutamate and glutamine was accomplished using an excitation wavelength of 250 nm and monitoring emission at 395 nm. […]

Series [2] in a line: Feeding pig model (absorption as component of diet). In kind it is in vivo. The text has this:
Fifteen pigs, 15-20 kg in weight were provided by a certified farm. The pigs were acclimated to the laboratory for 2 days. A standard pig diet and water was provided ad libitum. After acclimation, the pigs were randomly assigned into group C [5 pigs, receiving a standard pig diet plus 3 g/kg of Cr2O3, (Merck cat No 1.02483)], group G [5 pigs, receiving diet C plus 8 g/kg of Gln, (Ajimoto)], and group N [5 pigs, receiving diet C plus 10.5 g/kg of N-acetyl-L-glutamine, (Flamma)]. During the experimental phase of the study, each group received 1000 grams of their respective diet per day per animal, fed in 3 portions and water was provided ad libitum. This experimental phase of feeding lasted 5 days.
On the day of experiment, animals were weighed and received the standard diet intake (333 g diet per animal) at 7:00 a.m. Three hours after feeding, animals were weighed, sedated and bled through jugular vein puncture. Animals were quickly opened by abdominal medium sagital incision and the content of the duodenum, medium jejunum (about 2 meters from the ligament of Treitz) and ileum (30 cm from the ileocecal valve) were taken, frozen in liquid nitrogen, lyophylized, and stored at −80° C. until analysis. Samples of liver and kidney were removed, dissected of visible fat and connective tissue, quickly frozen in liquid nitrogen and stored at −80° C. until analysis. […]
Intestinal content was analyzed for glutamine, N-acetyl-L-glutamine and chromium (III) oxide. […]
For analysis of glutamine, the lyophilized intestinal content was treated and analyzed as described in the intestinal loop model above.
Chromium was incorporated into the diets to provide a correction factor to reflect content per kg of original diet. […] The absorbance at 372 nm against demineralized water as a blank was determined. The absorbance readings were converted to mg of Cr2O3 by employing the equation of a standard curve prepared by analyzing 0, 50, 100, 200 and 500 microliters of a standard chromium solution (2.9034 g of K2Cr2O7/L, which is equivalent to 1.5 g/L of Cr2O3).

Where [3] appears, read: N-acetyl-L-glutamine diet (55.8 mmole/kg diet), pigs, 3 hours after feeding.

From patent publication US20030134851A1, “Methods and compositions for providing glutamine” (priority 2001, published 2003) come the findings set out here.

With `CC(=O)N[C@@H](CCC(N)=O)C(=O)O` [N-acetyl-L-glutamine], the “Glutamine in portal blood, N group versus G group” value in series [1] was “no significant differences between G and N”. Also, in series [2] (setting [3]), the “N-acetyl-L-glutamine in distal ileum content” value worked out at 12.8 ± 2.1 mmole/kg original diet and the “N-acetyl-L-glutamine in medium jejunum content” value is recorded as 10.3 ± 2.4 mmole/kg original diet. Moreover, the “Absorption between the medial jejunum and the distal ilium” value in series [2] (pig, in vivo) is given as “not observed”.
